Data published in patent publication US20250205270A1, “ANTIBODY-DRUG CONJUGATE PRECURSORS COMPRISING A CYCLIC DINUCLEOTIDE” (TAKEDA PHARMACEUTICAL COMPANY LIMITED, priority 2016, published 2025).
Structures can show the parent of a compound that is named as a salt. Where two headings read alike, the source gives them in different places.

How the values were obtained:
[1] = target: WT STING (Homo sapiens (Human), UniProt Q86WV6, H232R); format: cell-based
[2] = system: B16F10 syngeneic mice model; experiment: Syngeneic tumor model, anti-tumor effect, B16F10; format: in vivo, mouse; conditions: C57BL/6 mice; intravenous, every 3 days, 3 times; Ex3a 30 mg/kg, Ex14 1.0 mg/kg
Procedure: (§1) Ex14 and Ex3a were tested in syngeneic tumor models in mice. […] See FIG. 8 and FIG. 9 for the anti-tumor effect colon carcinoma CT-26 syngeneic mice model, and FIG. 10 and FIG. 11 for the anti-tumor effect in the […] B16F10 syngeneic mice model.
(§2) 8×10^4 B16F10 and 2×10^5 CT-26 mouse tumor cells were subcutaneously implanted in the flank of female C57BL/6 (B16F10) and Balb/C (CT-26) mice (n=7 per group). Vehicle (1×PBS), compound Ex3a (30 mg/kg) or Ex14 (1.0 mg/kg) were intravenously administered (final volume of 100 μL) to tumor-bearing mice once the tumor volume has reached 100 mm^3 (Day 0). Vehicle, Ex3a or Ex14 were given every 3 days for a total of 3 doses (q3dx3). Tumor and body weight measurements were taken three times per week using vernier calipers and mettler scale, respectively. Tumor volumes were determined by multiplying the square of the width (‘W’), measured along the short axis of the tumor, by one-half the length (‘L’) measured along the […]

[3] = system: colon carcinoma CT-26 syngeneic mice model; experiment: Syngeneic tumor model, anti-tumor effect, CT-26; format: in vivo, mouse; conditions: Balb/C mice; intravenous, every 3 days, 3 times; Ex3a 30 mg/kg, Ex14 1.0 mg/kg
Procedure: as §1, §2

[4] = Human plasma stability assay; format: in vitro ADME; conditions: 37° C., 0-24 hours, LC/MS/MS
Procedure: The compound was incubated in heparinized human plasma at 37° C. for 0, 1, 2, 4, 8 and 24 hours, and the change in compound concentration was measured by LC/MS/MS method. The elimination rate constant (=k(/h)) was calculated based on the fitted curve assuming the exponential decrease of concentration as follows; concentration at time x=initial concentration*exp(−k*x).

[5] = system: phosphorylated IRF3 protein in FaDu cell; experiment: Phosphorylated IRF3 protein detection in FaDu cell; format: cell-based, human; conditions: at 30 μM; 6 hr; 2′,3′-cGAMP 30 μM = 100%
Procedure: Human larynx cancer cell line FaDu cell (ATCC) was seeded, the medium was replaced with serum free medium one day after the seeding. After the replacement, the cell was cultured for one day, and to the cell were added the natural ligand 2′,3′-cGAMIP (the final concentration; 30 μM) and test compound (the final concentration; 15 μM or 30 μM). 6 hr after the addition, the cell was washed with PBS, the cell extract was prepared, and the phosphorylated IRF3 protein was detected by ELISA method or Western blotting method. The IRF3 protein phosphorylation activity of the test compound was calculated when the value in the sample with adding the natural ligand 2′,3′-cGAMP at the final concentration of 30 μM was considered as 100%.

[6] = system: THP1-Dual cells (ISG54 promoter Lucia luciferase reporter); experiment: THP-1 Dual Lucia reporter gene assay; format: cell-based, human; conditions: 20 hours incubation, read-out: THP-1 Dual cell EC50 (μM) Reporter
Procedure: THP1-Dual™ cells (InvivoGen #thpd-nfis) were derived from the human THP-1 monocyte cell line by stable integration of the Lucia luciferase gene, a secreted luciferase reporter gene, under the control of an ISG54 (interferon-stimulated gene) minimal promoter in conjunction with five interferon (IFN)-stimulated response elements. On the day of experiment, the cells were plated to a black, 384-well plate (Corning 356697) at 7500 cells/25 μL per well density in growth media (RPMI 1640, 2 mM L-glutamine, 25 mM HEPES, 10% heat-inactivated fetal bovine serum, 100 μg/mL Normocin™, 100 U/mL-100 μg/mL Pen-Strep, 10 μg/mL of blasticidin, and 100 μg/mL of Zeocin). The cell plates were dosed with 62.5 nL of the testing compounds, and then incubated at 37° C. for 20 hours. At the end of the incubation, 15 μL/well of the QUANTI-Luc™ (InvivoGen #rep-qlc1) were added, and luminescence was measured immediately using the LeadSeeker.

WT STING, sequence (Q86WV6 whole entry H232R): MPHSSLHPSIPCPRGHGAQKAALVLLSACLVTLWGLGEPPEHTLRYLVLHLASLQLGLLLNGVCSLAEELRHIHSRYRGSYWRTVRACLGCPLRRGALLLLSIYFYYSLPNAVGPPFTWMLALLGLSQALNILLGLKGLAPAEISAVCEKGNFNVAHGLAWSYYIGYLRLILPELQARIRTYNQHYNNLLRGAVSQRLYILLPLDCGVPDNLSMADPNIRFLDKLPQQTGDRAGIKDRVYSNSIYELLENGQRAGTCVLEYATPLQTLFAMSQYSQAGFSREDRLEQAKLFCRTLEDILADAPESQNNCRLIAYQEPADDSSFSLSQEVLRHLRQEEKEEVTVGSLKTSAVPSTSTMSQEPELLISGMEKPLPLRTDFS

| Compound | activity level against WT STING of test compound (30 μM) [1] | Human plasma stability (/h), elimination rate constant k [4] | activity level of test compound, IRF3 protein phosphorylation test [5] | further results |
| --- | --- | --- | --- | --- |
| Nc1ncnc2c1ncn2[C@@H]1O[C@@]23CO[C@@H]1[C@@H]2OP(=O)(S)OC[C@H]1O[C@@H](n2cc(F)c4c(=O)[nH]cnc42)[C@H](OP(=O)(O)OC3)[C@@H]1O (stereo partly drawn) [Example 17, 7-((5R,7R,8R,12aR,14R,15R,15aS,18R)-14-(6-amino-9H-purin-9-yl)-10,18-dihydroxy-2,10-dioxido-2-sulfanylhexahydro-14H-15,12a-(epoxymethano)-5,8-methanofuro[3,2-1][1,3,6,9,11,2,10]pentaoxadiphosphacyclotetradecin-7(12H)-yl)-5-fluoro-3,7-dihydro-4H-pyrrolo[2,3-d]pyrimidin-4-one di-triethylamine Salt] | 110% | – | – | – |
| Nc1ncnc2c1ncn2[C@@H]1O[C@@H]2COP(=O)(S)O[C@@H]3[C@H](O)[C@@H](COP(=O)(S)O[C@H]2[C@H]1F)O[C@H]3n1cc(F)c2c(=O)[nH]cnc21 (stereo partly drawn) [Example 14, 7-((2R,5R,7R,8R,10R,12aR,14R,15R,15aR,16R)-14-(6-amino-9H-purin-9-yl)-15-fluoro-16-hydroxy-2,10-dioxido-2,10-disulfanyloctahydro-12H-5,8-methanofuro[3,2-1][1,3,6,9,11,2,10]pentaoxadiphosphacyclotetradecin-7-yl)-5-fluoro-3,7-dihydro-4H-pyrrolo[2,3-d]pyrimidin-4-one Disodium Salt] | – | <0.01 h⁻¹ | – | anti-tumor effect (tumor volume) [2]: anti-tumor effects were observed; anti-tumor effect (tumor volume) [3]: anti-tumor effects were observed |
| Nc1ncnc2c1ncn2[C@@H]1O[C@@H]2COP(=O)(O)O[C@@H]3[C@H](O)[C@@H](COP(=O)(S)O[C@H]2[C@H]1F)O[C@H]3n1cc(F)c2c(=O)[nH]cnc21 (stereo partly drawn) [Example 3, 7-((2R,5R,7R,8R,12aR,14R,15R,15aR,16R)-14-(6-amino-9H-purin-9-yl)-15-fluoro-10,16-dihydroxy-2,10-dioxido-2-sulfanyloctahydro-12H-5,8-methanofuro[3,2-1][1,3,6,9,11,2,10]pentaoxadiphosphacyclotetradecin-7-yl)-5-fluoro-3,7-dihydro-4H-pyrrolo[2,3-d]pyrimidin-4-one 1.7 Triethylamine Salt] | – | – | 464.6% at 30 μM | – |
| Nc1nc2c(ncn2[C@@H]2O[C@@H]3COP(=O)(O)O[C@H]4[C@@H](O)[C@H](c5cnn6c(N)ncnc56)O[C@@H]4COP(=O)(O)O[C@@H]2[C@@H]3O)c(=O)[nH]1 [Example 13, 2-amino-9-((5R,7R,8R,12aR,14S,15S,15aS,16R)-14-(4-aminopyrazolo[1,5-a][1,3,5]triazin-8-yl)-2,10,15,16-tetrahydroxy-2,10-dioxidooctahydro-12H-5,8-methanofuro[3,2-1][1,3,6,9,11,2,10]pentaoxadiphosphacyclotetradecin-7-yl)-1,9-dihydro-6H-purin-6-one di-triethylamine Salt] | 99% | – | – | – |
| Nc1ncnc2c1ncn2[C@@H]1O[C@@H]2COP(=O)(O)O[C@@H]3[C@H](O)[C@@H](COP(=O)(S)O[C@H]2[C@H]1F)O[C@H]3n1cc(F)c2c(=O)[nH]cnc21 (stereo partly drawn) [Example 2, 7-((5R,7R,8R,12aR,14R,15R,15aR,16R)-14-(6-amino-9H-purin-9-yl)-15-fluoro-10,16-dihydroxy-2,10-dioxido-2-sulfanyloctahydro-12H-5,8-methanofuro[3,2-1][1,3,6,9,11,2,10]pentaoxadiphosphacyclotetradecin-7-yl)-5-fluoro-3,7-dihydro-4H-pyrrolo[2,3-d]pyrimidin-4-one di-triethylamine Salt (Optical Isomer)] | 112% | – | 88.7% at 30 μM | – |
| Nc1ncnc2c1ncn2[C@@H]1O[C@@H]2COP(=O)(S)O[C@@H]3[C@H](O)[C@@H](COP(=O)(S)O[C@H]2[C@H]1O)O[C@H]3n1cc(F)c2c(=O)[nH]cnc21 (stereo partly drawn) [Example 5, 7-((5R,7R,8R,12aR,14R,15R,15aS,16R)-14-(6-amino-9H-purin-9-yl)-15,16-dihydroxy-2,10-dioxido-2,10-disulfanyloctahydro-12H-5,8-methanofuro[3,2-1][1,3,6,9,11,2,10]pentaoxadiphosphacyclotetradecin-7-yl)-5-fluoro-3,7-dihydro-4H-pyrrolo[2,3-d]pyrimidin-4-one di-triethylamine Salt (Optical Isomer)] | – | <0.01 h⁻¹ | 117.4% at 30 μM | – |
| Nc1nc2c(ncn2[C@@H]2O[C@@H]3COP(=O)(O)O[C@H]4[C@@H](O)[C@H](n5cnc6c(N)ncnc65)O[C@@H]4COP(=O)(O)O[C@@H]2[C@@H]3O)c(=O)[nH]1 [cGAMP, 2′,3′-cGAMP, reference compound] | – | 1.39 h⁻¹ | – | EC50 [6]: 18 µM |
| Nc1nc2c(ncn2[C@@H]2O[C@@H]3COP(=O)(O)O[C@@H]4[C@H](O)[C@@H](COP(=O)(O)O[C@H]3[C@H]2F)O[C@H]4n2cc(F)c3c(=O)[nH]cnc32)c(=O)[nH]1 [Example 19, 2-amino-9-((5R,7R,8R,12aR,14R,15R,15aR,16R)-15-fluoro-7-(5-fluoro-4-oxo-3,4-dihydro-7H-pyrrolo[2,3-d]pyrimidin-7-yl)-2,10,16-trihydroxy-2,10-dioxidooctahydro-12H-5,8-methanofuro[3,2-1][1,3,6,9,11,2,10]pentaoxadiphosphacyclotetradecin-14-yl)-1,9-dihydro-6H-purin-6-one di-triethylamine Salt] | 101% | – | – | – |
| Nc1ncnc2c1ncn2[C@@H]1O[C@@H]2COP(=O)(O)O[C@@H]3[C@H](O)[C@@H](COP(=O)(S)O[C@H]2[C@H]1F)O[C@H]3n1cc(F)c2c(=O)[nH]cnc21 (stereo partly drawn) [Example 3a, 7-((2R,5R,7R,8R,12aR,14R,15R,15aR,16R)-14-(6-amino-9H-purin-9-yl)-15-fluoro-10,16-dihydroxy-2,10-dioxido-2-sulfanyloctahydro-12H-5,8-methanofuro[3,2-1][1,3,6,9,11,2,10]pentaoxadiphosphacyclotetradecin-7-yl)-5-fluoro-3,7-dihydro-4H-pyrrolo[2,3-d]pyrimidin-4-one Disodium Salt] | – | 0.58 h⁻¹ | – | anti-tumor effect (tumor volume) [2]: anti-tumor effects were observed; EC50 ([6]; Homo sapiens, THP1-Dual): 5.6 µM; anti-tumor effect (tumor volume) [3]: anti-tumor effects were observed; EC50 ([1]; with digitonin, read-out: STING-293T cell EC50 (μM) Reporter with digitonin (B)): 0.13 µM |
| Nc1ncnc2c1ncn2[C@@H]1O[C@@H]2COP(=O)(O)O[C@@H]3[C@H](O)[C@@H](COP(=O)(O)O[C@H]2[C@H]1F)O[C@H]3n1cc(F)c2c(=O)[nH]cnc21 [Example 1, 7-((5R,7R,8R,12aR,14R,15R,15aR,16R)-14-(6-amino-9H-purin-9-yl)-15-fluoro-2,10,16-trihydroxy-2,10-dioxidooctahydro-12H-5,8-methanofuro[3,2-1][1,3,6,9,11,2,10]pentaoxadiphosphacyclotetradecin-7-yl)-5-fluoro-3,7-dihydro-4H-pyrrolo[2,3-d]pyrimidin-4-one di-triethylamine Salt] | – | – | 468.8% at 30 μM | – |
